Assay results: US12617773B2, “Azetidin-3-ylmethanol derivatives as CCR6 receptor modulators” (Idorsia Pharmaceuticals Ltd, priority 2020, dated 2026)

Biological target: T1, human CCR6 (Homo sapiens, UniProt P51684)
T1 construct: expressed in transfected cells; host or cells: HEK-293
T1 sequence (P51684 1-374): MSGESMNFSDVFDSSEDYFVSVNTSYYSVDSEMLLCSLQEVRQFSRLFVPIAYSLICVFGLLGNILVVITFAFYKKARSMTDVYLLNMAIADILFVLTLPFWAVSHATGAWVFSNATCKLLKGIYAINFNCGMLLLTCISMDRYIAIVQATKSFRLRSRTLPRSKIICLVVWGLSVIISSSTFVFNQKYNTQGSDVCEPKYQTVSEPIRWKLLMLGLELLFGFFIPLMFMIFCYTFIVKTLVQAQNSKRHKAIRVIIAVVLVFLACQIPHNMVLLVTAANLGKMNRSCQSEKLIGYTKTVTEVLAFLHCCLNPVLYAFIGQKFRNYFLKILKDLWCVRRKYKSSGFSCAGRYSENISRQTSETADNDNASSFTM
Assay: FLIPR assay (inhibition of CCL20-induced calcium signal)
Type: cell-based
Settings: FLIPR IC50 (nM), HEK-293 cells expressing human CCR6; mean values where determined several times
Outline: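 IC50 values come from baseline-corrected peak calcium fluorescence after agonist. The agonist was CCL20 at 10 nM final, added to engineered human CCR6 HEK-293 cells following a 30-min, room-temperature, dark preincubation with serially diluted compound. Readings were taken in a fluorometric imaging plate reader.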

First: CN1CC(C)(C(O)(c2ccc(C(C)(C)C)cc2)c2cncc(N3CCCC3)c2)C1 (centres unmarked) [Example 157]
Second: CC(C)c1ccc([C@](O)(c2cncc(N3C4CCC3CC4)c2)C2(C)CN(C)C2)cc1 [Example 177]
The IC50 of the first is 10-fold lower: 27.7 nM for the first, 284 nM for the second. The first is the more potent here.

Same assay, conditions: HEK-293 cells expressing human CCR6; mean values where determined several times; read-out: FLIPR IC50

Going from COc1ccc(C(O)(c2ccc(OC(F)(F)F)cc2)C2(C)CN(C)C2)cn1 (centres unmarked) [Example 146, (1,3-Dimethyl-azetidin-3-yl)-(6-methoxy-pyridin-3-yl)-(4-trifluoromethoxy-phenyl)-methanol] to CN1CC(C)(C(O)(c2ccc(OC(F)(F)F)cc2)c2ccc(Oc3ccccc3)nc2)C1 (centres unmarked) [Example 147], the IC50 falls from 309 nM to 63.5 nM (4.9-fold). The second is the more potent here.

Compared with CCCc1ccc(C(O)(c2cncc(N3CCCC3)c2)C2(C)CN(C)C2)cc1 (centres unmarked) [Example 150, (1,3-Dimethyl-azetidin-3-yl)-(4-propyl-phenyl)-(5-pyrrolidin-1-yl-pyridin-3-yl)-methanol], CCc1ccc(C(O)(c2cncc(N3CCCC3)c2)C2(C)CN(C)C2)cc1 (centres unmarked) [Example 152] is 1.7-fold higher in IC50: 35.8 nM for the first, 60.2 nM for the second.

First: COc1ccc(C(O)(c2cncc(N3CCCC3)c2)C2(C)CN(C)C2)cc1 (centres unmarked) [Example 151]
Second: CCOc1ccc(C(O)(c2cncc(N3CCCC3)c2)C2(C)CN(C)C2)cc1 (centres unmarked) [Example 156]
The IC50 of the first is 2.3-fold higher: 336 nM for the first, 147 nM for the second.

CN1CC(C)(C(O)(c2ccccc2)c2cncc(N3CCCC3)c2)C1 (centres unmarked) [Example 153] and CC(C)Oc1ccc(C(O)(c2cncc(N3CCCC3)c2)C2(C)CN(C)C2)cc1 (centres unmarked) [Example 158] are within 1.5-fold of each other in IC50: 214 nM for the first, 222 nM for the second.

CN1CC(C)(C(O)(c2ccc(C3CCC3)cc2)c2cncc(N3CCCC3)c2)C1 (centres unmarked) [Example 154] and CN1CC(C)(C(O)(c2ccc(OC3CCC3)cc2)c2cncc(N3CCCC3)c2)C1 (centres unmarked) [Example 155] are within 1.5-fold of each other in IC50: 36.8 nM for the first, 28 nM for the second.

Compared with CN1CC(C)(C(O)(c2ccc(C3(C(F)(F)F)CC3)cc2)c2cncc(N3CCCC3)c2)C1 (centres unmarked) [Example 159], CN1CC(C)([C@](O)(c2ccc(C3(C(F)(F)F)CC3)cc2)c2cncc(N3CCCC3)c2)C1 [Example 187] is 5.8-fold lower in IC50: 91.6 nM for the first, 15.8 nM for the second. The second is the more potent here.

Compared with CN1CC(C)(C(O)(c2ccc(C3(C)CC3)cc2)c2cncc(N3CCCC3)c2)C1 (centres unmarked) [Example 160], CN1CC(C)([C@](O)(c2ccc(C3(C)CC3)cc2)c2cncc(N3CCCC3)c2)C1 [Example 184] is 5-fold lower in IC50: 82.9 nM for the first, 16.5 nM for the second. The second is the more potent here.

First: CN1CC(C)(C(O)(c2ccc(OC3CC3)cc2)c2cncc(N3CCCC3)c2)C1 (centres unmarked) [Example 161]
Second: CC(C)c1ccc([C@](O)(c2cncc(N3CCCCC3)c2)C2(C)CN(C)C2)cc1 [Example 176]
The IC50 of the first is 5.2-fold higher: 202 nM for the first, 39.2 nM for the second.

Going from CC(C)c1ccc([C@](O)(c2ccnc(N3CCC(F)(F)C3)c2)C2(C)CN(C)C2)cc1 [Example 162, (S)-[2-(3,3-Difluoro-pyrrolidin-1-yl)-pyridin-4-yl]-(1,3-dimethyl-azetidin-3-yl)-(4-isopropyl-phenyl)-methanol] to CC(C)c1ccc([C@](O)(c2cnnc(N3CCC(F)(F)C3)c2)C2(C)CN(C)C2)cc1 [Example 166, (R)-[6-(3,3-Difluoro-pyrrolidin-1-yl)-pyridazin-4-yl]-(1,3-dimethyl-azetidin-3-yl)-(4-isopropyl-phenyl)-methanol], the IC50 rises from 43.4 nM to 85.3 nM (2-fold).

CC(C)c1ccc([C@](O)(c2ccnc(N3C[C@@H](F)[C@@H](F)C3)c2)C2(C)CN(C)C2)cc1 [Example 163, (S)-[2-((3R,4S)-3,4-Difluoro-pyrrolidin-1-yl)-pyridin-4-yl]-(1,3-dimethyl-azetidin-3-yl)-(4-isopropyl-phenyl)-methanol] and CC(C)COc1cc([C@@](O)(c2ccc(C(C)C)cc2)C2(C)CN(C)C2)ccn1 [Example 164, (S)-(1,3-Dimethyl-azetidin-3-yl)-(2-isobutoxy-pyridin-4-yl)-(4-isopropyl-phenyl)-methanol] are within 1.5-fold of each other in IC50: 24.6 nM for the first, 18.9 nM for the second.

Compared with CC(C)c1ccc([C@](O)(c2ccnc(CCC(C)(C)O)c2)C2(C)CN(C)C2)cc1 [Example 165, 4-{4-[(S)-(1,3-Dimethyl-azetidin-3-yl)-hydroxy-(4-isopropyl-phenyl)-methyl]-pyridin-2-yl}-2-methyl-butan-2-ol], CC(C)c1ccc([C@](O)(c2cncc(N(C)CCO)c2)C2(C)CN(C)C2)cc1 [Example 191, 2-({5-[(R)-(1,3-Dimethyl-azetidin-3-yl)-hydroxy-(4-isopropyl-phenyl)-methyl]-pyridin-3-yl}-methyl-amino)-ethanol] is 2.1-fold lower in IC50: 677 nM for the first, 317 nM for the second.

First: CC(C)c1ccc([C@](O)(c2cncc(N3CC[C@H](CO)C3)c2)C2(C)CN(C)C2)cc1 [Example 170]
Second: CC(C)c1ccc([C@](O)(c2cncc(N3CCCC(O)C3)c2)C2(C)CN(C)C2)cc1 (some centres unmarked) [Example 182]
The IC50 of the first is 1.5-fold higher: 133 nM for the first, 86.5 nM for the second.

CC(C)c1ccc([C@](O)(c2cncc(N3CCC(O)(C4CC4)C3)c2)C2(C)CN(C)C2)cc1 (some centres unmarked) [Example 173] and CC(C)c1ccc([C@](O)(c2cncc(N3CCC(F)(F)C3)c2)C2(C)CN(C)C2)cc1 [Example 180] are within 1.5-fold of each other in IC50: 77.9 nM for the first, 55.7 nM for the second.

Compared with CC(C)c1ccc([C@](O)(c2cncc(N3CCC[C@@H]3C)c2)C2(C)CN(C)C2)cc1 [Example 178], CC(C)c1ccc([C@](O)(c2cncc(N3CCC(O)CC3)c2)C2(C)CN(C)C2)cc1 [Example 181] is 6.2-fold higher in IC50: 47.5 nM for the first, 295 nM for the second.

Going from CC(C)c1ccc([C@](O)(c2cncc(N3CCC(O)(C(F)(F)F)C3)c2)C2(C)CN(C)C2)cc1 (some centres unmarked) [Example 179] to CC(C)c1ccc([C@](O)(c2cncc(N3CC4(CC4)OC3=O)c2)C2(C)CN(C)C2)cc1 [Example 197], the IC50 rises from 64.5 nM to 106 nM (1.6-fold). The first is the more potent here.

CC(C)c1ccc([C@](O)(c2cncc(N(C)CCOCc3ccccc3)c2)C2(C)CN(C)C2)cc1 [Example 183] and CC(C)c1ccc([C@](O)(c2cncc(N3CC(Cc4ccccc4)OC3=O)c2)C2(C)CN(C)C2)cc1 (some centres unmarked) [Example 195] are within 1.5-fold of each other in IC50: 31.7 nM for the first, 29.3 nM for the second.

First: CN1CC(C)([C@](O)(c2ccc(C3(C(F)(F)F)CC3)cc2)c2cncc(N3C[C@@H](F)[C@@H](F)C3)c2)C1 [Example 185]
Second: CN1CC(C)([C@](O)(c2ccc(C3(C(F)(F)F)CC3)cc2)c2cncc(N3CC[C@H](C(C)(C)O)C3)c2)C1 [Example 186]
The IC50 of the first is 1.6-fold lower: 27.9 nM for the first, 43.5 nM for the second. The first is the more potent here.

First: CN1CC(C)([C@](O)(c2ccc(C(C)(C)C)cc2)c2cncc(N3CCCCC3)c2)C1 [Example 188]
Second: CC(C)c1ccc([C@](O)(c2cncc(N3CC4(CCCC4)OC3=O)c2)C2(C)CN(C)C2)cc1 [Example 198]
The IC50 of the first is 3-fold lower: 23.4 nM for the first, 70.8 nM for the second.

Going from CC(C)c1ccc([C@](O)(c2cncc(-c3noc(C4CCN(S(=O)(=O)C5CC5)CC4)n3)c2)C2(C)CN(C)C2)cc1 [Example 190, (R)-{5-[5-(1-Cyclopropanesulfonyl-piperidin-4-yl)-[1,2,4]oxadiazol-3-yl]-pyridin-3-yl}-(1,3-dimethyl-azetidin-3-yl)-(4-isopropyl-phenyl)-methanol] to CC(C)c1ccc([C@](O)(c2cncc(N3CC(C4CCOCC4)OC3=O)c2)C2(C)CN(C)C2)cc1 (some centres unmarked) [Example 199], the IC50 rises from 38 nM to 487 nM (13-fold).

First: CC(C)c1ccc([C@](O)(c2cncc(N3CC(c4ccccc4)OC3=O)c2)C2(C)CN(C)C2)cc1 (some centres unmarked) [Example 194]
Second: CC(C)c1ccc([C@](O)(c2cncc(N3CC(C(C)C)OC3=O)c2)C2(C)CN(C)C2)cc1 (some centres unmarked) [Example 196]
The IC50 of the first is 3.3-fold lower: 20.5 nM for the first, 67.6 nM for the second.

First: CC(C)c1ccc([C@](O)(c2cncc(N3CC(C)(C)OC3=O)c2)C2(C)CN(C)C2)cc1 [Example 200]
Second: CC(C)c1ccc([C@](O)(c2cncc(N3CC4(CCC(F)(F)CC4)OC3=O)c2)C2(C)CN(C)C2)cc1 [Example 201]
The IC50 of the first is 2.6-fold higher: 407 nM for the first, 159 nM for the second.
